Calls of active or inactive are those of the source. The calls are words filed in the database; no cut-off is given here.
System: not listed separately
Experiment: Inhibition of Cu2+-induced amyloid beta (1 to 40) fibril aggregation at 100 uM preincubated for 5 mins followed by amyloid beta (1 to 40) addition measured after 18 days by turbidity assay
Conditions: not given
For `Oc1ccc(CNc2ccccc2O)cc1O`, the inhibition was “Active”.
For `Oc1cccc(CNc2ccccc2O)c1`, the inhibition was “Active”.

System: not listed separately
Experiment: Inhibition of preformed Cu2+-induced amyloid beta (1 to 40) fibril aggregation assessed as remaining fibril aggregates at 100 uM after 4 days at pH 6.60 by thioflavin-T fluorescence assay
Conditions: not given
`Oc1ccc(CNc2ccccc2O)cc1O` gave an Activity of 76.5%.
With `Oc1cccc(CNc2ccccc2O)c1` the Activity was 144%.

Biological target: Amyloid-beta precursor protein (Homo sapiens) (UniProt P05067)
Sequence (P05067 whole entry): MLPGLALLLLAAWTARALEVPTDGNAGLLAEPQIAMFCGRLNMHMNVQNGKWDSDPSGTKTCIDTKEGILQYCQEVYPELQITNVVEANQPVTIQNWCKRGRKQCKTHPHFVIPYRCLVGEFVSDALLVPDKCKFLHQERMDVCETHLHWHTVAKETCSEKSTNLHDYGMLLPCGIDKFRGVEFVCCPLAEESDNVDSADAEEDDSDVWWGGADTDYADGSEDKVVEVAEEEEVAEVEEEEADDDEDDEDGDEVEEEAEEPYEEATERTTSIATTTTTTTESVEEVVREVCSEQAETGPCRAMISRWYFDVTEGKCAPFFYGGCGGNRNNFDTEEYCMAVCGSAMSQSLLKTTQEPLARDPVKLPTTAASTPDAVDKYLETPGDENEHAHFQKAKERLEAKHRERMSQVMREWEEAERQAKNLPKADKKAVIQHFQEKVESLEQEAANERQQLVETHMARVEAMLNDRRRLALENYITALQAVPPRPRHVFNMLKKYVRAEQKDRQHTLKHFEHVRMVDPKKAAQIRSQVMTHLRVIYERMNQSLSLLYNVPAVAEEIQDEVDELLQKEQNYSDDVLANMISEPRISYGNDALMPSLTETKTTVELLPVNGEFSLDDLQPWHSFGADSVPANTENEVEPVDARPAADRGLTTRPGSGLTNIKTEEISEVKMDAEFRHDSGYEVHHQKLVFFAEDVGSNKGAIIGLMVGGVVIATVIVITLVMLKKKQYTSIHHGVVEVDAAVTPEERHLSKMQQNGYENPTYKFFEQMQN
Experiment: Induction of self-induced amyloid beta (1 to 40) (unknown origin) fibril aggregation at 100 uM after 3 days by turbidity assay
Conditions: not given
With `Oc1ccc(CNc2ccccc2O)cc1O` the Activity was “Active”.
For `Oc1cccc(CNc2ccccc2O)c1`, the Activity was “Active”.

System: not listed separately
Experiment: Ratio of ascorbic acid IC50 to compound IC50 for DPPH free radical scavenging activity
Conditions: not given
`Oc1ccc(CNc2ccccc2O)cc1O` gave a Ratio IC50 of 2.
Work on `Oc1cccc(CNc2ccccc2O)c1` yielded a Ratio IC50 of 2.

System: not listed separately
Experiment: Inhibition of preformed Cu2+-induced amyloid beta (1 to 40) fibril aggregation assessed as remaining fibril aggregates at 100 uM after 12 days at pH 6.60 by thioflavin-T fluorescence assay
Conditions: not given
Work on `Oc1ccc(CNc2ccccc2O)cc1O` yielded an Activity of 69.7%.
`Oc1cccc(CNc2ccccc2O)c1` gave an Activity of 117%.

System: not listed separately
Experiment: Inhibition of Cu2+-induced amyloid beta (1 to 40) fibril aggregation assessed as remaining fibril aggregates at 100 uM preincubated for 5 mins followed by amyloid beta (1 to 40) addition measured after 3 days at pH 6.60 by thioflavin-T fluorescence assay
Conditions: not given
Work on `Oc1ccc(CNc2ccccc2O)cc1O` yielded an Activity of 19.5%.
In the case of `Oc1cccc(CNc2ccccc2O)c1`, the Activity is reported as 45%.

System: not listed separately
Experiment: Ratio of resveratrol IC50 to compound IC50 for DPPH free radical scavenging activity
Conditions: not given
Work on `Oc1ccc(CNc2ccccc2O)cc1O` yielded a Ratio IC50 of 5.8.
With `Oc1cccc(CNc2ccccc2O)c1` the Ratio IC50 was 3.

System: not listed separately
Experiment: Binding affinity to Zn2+ using ZnCl2 at 20 uM after 5 mins by spectrophotometry
Conditions: not given
In the case of `Oc1ccc(CNc2ccccc2O)cc1O`, the Activity is reported as “inactive”.
For `Oc1cccc(CNc2ccccc2O)c1`, the Activity was “inactive”.

System: not listed separately
Experiment: Binding affinity to Fe2+ using FeCl2 at 20 uM after 5 mins by spectrophotometry
Conditions: not given
For `Oc1ccc(CNc2ccccc2O)cc1O`, the Activity was “inactive”.
With `Oc1cccc(CNc2ccccc2O)c1` the Activity was “inactive”.

System: not listed separately
Experiment: Inhibition of Cu2+-amyloid beta (1 to 40) catalyzed generation of hydroxyl radical assessed as rate of radical formation per min at 2 equiv preincubated for 1 hr followed by CCA addition measured over 60 mins by CCA based fluorescence assay (reference value: 13 +/- 0.2 a.u.)
Conditions: not given
In the case of `Oc1ccc(CNc2ccccc2O)cc1O`, the Activity is reported as 4 a.u.
With `Oc1cccc(CNc2ccccc2O)c1` the Activity was 5.4 a.u.

System: not listed separately
Experiment: Ratio of resveratrol IC50 to compound IC50 for AAPH radical scavenging activity
Conditions: not given
With `Oc1ccc(CNc2ccccc2O)cc1O` the Ratio IC50 was 2.8.
In the case of `Oc1cccc(CNc2ccccc2O)c1`, the Ratio IC50 is reported as 1.4.

System: not listed separately
Experiment: Antioxidant activity assessed as DPPH free radical scavenging activity after 30 mins by spectrophotometry
Format: physicochemical
Conditions: not given
Molecule `Oc1ccc(CNc2ccccc2O)cc1O` has an IC50 of 3.05 µM.
With `Oc1cccc(CNc2ccccc2O)c1` the IC50 was 5.87 µM.

Biological target: Amyloid-beta precursor protein (Homo sapiens) (UniProt P05067)
Experiment: Inhibition of preformed self-induced amyloid beta (1 to 40) (unknown origin) fibril aggregation at 100 uM after 12 days by turbidity assay relative to control
Conditions: not given
For `Oc1ccc(CNc2ccccc2O)cc1O`, the inhibition was “Active”.
`Oc1cccc(CNc2ccccc2O)c1` showed an inhibition of 46%.

System: not listed separately
Experiment: Inhibition of Cu2+-induced amyloid beta (1 to 40) aggregation at 100 uM preincubated for 5 mins followed by amyloid beta (1 to 40) addition measured after 18 days at pH 6.60 by thioflavin-T fluorescence assay
Conditions: not given
In the case of `Oc1ccc(CNc2ccccc2O)cc1O`, the inhibition is reported as “Active”.
With `Oc1cccc(CNc2ccccc2O)c1` the inhibition was “Active”.

System: not listed separately
Experiment: Binding affinity to Ca2+ using CaCl2 at 20 uM after 5 mins by spectrophotometry
Conditions: not given
For `Oc1ccc(CNc2ccccc2O)cc1O`, the Activity was “inactive”.
With `Oc1cccc(CNc2ccccc2O)c1` the Activity was “inactive”.

Biological target: Amyloid-beta precursor protein (Homo sapiens) (UniProt P05067)
Experiment: Induction of preformed self-induced amyloid beta (1 to 40) (unknown origin) fibril aggregation at 100 uM after 4 days by turbidity assay
Conditions: not given
In the case of `Oc1ccc(CNc2ccccc2O)cc1O`, the Activity is reported as “Active”.
For `Oc1cccc(CNc2ccccc2O)c1`, the Activity was “Active”.

System: not listed separately
Experiment: Induction of preformed Cu2+-induced amyloid beta (1 to 40) fibril aggregation at 100 uM after 4 to 12 days by turbidity assay relative to control
Conditions: not given
With `Oc1ccc(CNc2ccccc2O)cc1O` the Activity was “Active”.

Biological target: Amyloid-beta precursor protein (Homo sapiens) (UniProt P05067)
Experiment: Inhibition of self-induced amyloid beta (1 to 40) (unknown origin) fibril aggregation assessed as remaining fibril aggregates at 100 uM after 3 days at pH 6.60 by thioflavin-T fluorescence assay
Conditions: not given
Work on `Oc1ccc(CNc2ccccc2O)cc1O` yielded an Activity of 9.17%.
Molecule `Oc1cccc(CNc2ccccc2O)c1` has an Activity of 8.2%.

Biological target: Amyloid-beta precursor protein (Homo sapiens) (UniProt P05067)
Experiment: Inhibition of preformed self-induced amyloid beta (1 to 40) (unknown origin) fibril aggregation assessed as remaining fibril aggregates at 100 uM after 4 days at pH 6.60 by thioflavin-T fluorescence assay
Conditions: not given
With `Oc1ccc(CNc2ccccc2O)cc1O` the Activity was 12.8%.
Work on `Oc1cccc(CNc2ccccc2O)c1` yielded an Activity of 11.7%.

Biological target: Amyloid-beta precursor protein (Homo sapiens) (UniProt P05067)
Experiment: Inhibition of self-induced amyloid beta (1 to 40) (unknown origin) fibril aggregation assessed as remaining fibril aggregates at 100 uM after 7 days at pH 6.60 by thioflavin-T fluorescence assay
Conditions: not given
Molecule `Oc1ccc(CNc2ccccc2O)cc1O` has an Activity of 7.49%.
In the case of `Oc1cccc(CNc2ccccc2O)c1`, the Activity is reported as 6.65%.

System: not listed separately
Experiment: Toxicity in Tetrahymena thermophila assessed as reduction in cell viability after 48 hrs by MTT assay
Format: organism-based
Conditions: Tetrahymena thermophila cells, read-out: LD50
`Oc1ccc(CNc2ccccc2O)cc1O` showed an LC50 at 48 h of 354 µM.
For `Oc1cccc(CNc2ccccc2O)c1`, the LC50 at 48 h was 180 µM.

System: not listed separately
Experiment: Inhibition of Cu2+-amyloid beta (1 to 40) catalyzed generation of hydroxyl radical assessed as 7-hrdroxy-CCA formation at 2 equiv preincubated for 1 hr followed by CCA addition measured over 60 mins by fluorescence assay
Conditions: not given
For `Oc1ccc(CNc2ccccc2O)cc1O`, the inhibition was 59.9%.
Molecule `Oc1cccc(CNc2ccccc2O)c1` has an inhibition of 51.1%.

Biological target: Amyloid-beta precursor protein (Homo sapiens) (UniProt P05067)
Experiment: Inhibition of preformed self-induced amyloid beta (1 to 40) (unknown origin) fibril aggregation assessed as remaining fibril aggregates at 100 uM after 12 days at pH 6.60 by thioflavin-T fluorescence assay
Conditions: not given
Work on `Oc1ccc(CNc2ccccc2O)cc1O` yielded an Activity of 9.28%.
Work on `Oc1cccc(CNc2ccccc2O)c1` yielded an Activity of 20.3%.

Biological target: Amyloid-beta precursor protein (Homo sapiens) (UniProt P05067)
Experiment: Inhibition of self-induced amyloid beta (1 to 40) (unknown origin) fibril aggregation at 100 uM after 7 to 18 days by turbidity assay
Conditions: not given
In the case of `Oc1ccc(CNc2ccccc2O)cc1O`, the inhibition is reported as “Active”.
In the case of `Oc1cccc(CNc2ccccc2O)c1`, the inhibition is reported as “Active”.

System: not listed separately
Experiment: Binding affinity to Mg2+ using MgSO4 at 20 uM after 5 mins by spectrophotometry
Conditions: not given
In the case of `Oc1ccc(CNc2ccccc2O)cc1O`, the Activity is reported as “inactive”.
For `Oc1cccc(CNc2ccccc2O)c1`, the Activity was “inactive”.

System: not listed separately
Experiment: Inhibition of Cu2+-induced amyloid beta (1 to 40) fibril aggregation assessed as remaining fibril aggregates at 100 uM preincubated for 5 mins followed by amyloid beta (1 to 40) addition measured after 7 days at pH 6.60 by thioflavin-T fluorescence assay
Conditions: not given
`Oc1ccc(CNc2ccccc2O)cc1O` gave an Activity of 12.1%.
Work on `Oc1cccc(CNc2ccccc2O)c1` yielded an Activity of 17.2%.

System: not listed separately
Experiment: Inhibition of preformed Cu2+-induced amyloid beta (1 to 40) fibril aggregation at 100 uM after 4 to 12 days by turbidity assay relative to control
Conditions: not given
For `Oc1cccc(CNc2ccccc2O)c1`, the inhibition was “Active”.

System: not listed separately
Experiment: Induction of Cu2+-induced amyloid beta (1 to 40) fibril aggregation at 100 uM preincubated for 5 mins followed by amyloid beta (1 to 40) addition measured after 3 to 7 days by turbidity assay
Conditions: not given
`Oc1ccc(CNc2ccccc2O)cc1O` showed an Activity of 47%.
Work on `Oc1cccc(CNc2ccccc2O)c1` yielded an Activity of 47%.

System: not listed separately
Experiment: Binding affinity to Cu2+ using CuCl2 after 5 mins by spectrophotometry
Conditions: not given
`Oc1ccc(CNc2ccccc2O)cc1O` gave a logKa of 12.6.
`Oc1cccc(CNc2ccccc2O)c1` gave a logKa of 13.1.

System: not listed separately
Experiment: Antioxidant activity assessed as AAPH radical scavenging activity preincubated for 30 mins followed by AAPH addition measured after 60 mins by ORAC assay
Format: physicochemical
Conditions: not given
Molecule `Oc1ccc(CNc2ccccc2O)cc1O` has an IC50 of 610 nM.
For `Oc1cccc(CNc2ccccc2O)c1`, the IC50 was 1240 nM.

System: not listed separately
Experiment: Binding affinity to Cu2+ using CuCl2 at 20 uM after 5 mins by spectrophotometric titration assay
Conditions: not given
In the case of `Oc1ccc(CNc2ccccc2O)cc1O`, the Activity is reported as “Active”.
With `Oc1cccc(CNc2ccccc2O)c1` the Activity was “Active”.

System: not listed separately
Experiment: Binding affinity to Mn2+ using MnCl2 at 20 uM after 5 mins by spectrophotometry
Conditions: not given
In the case of `Oc1ccc(CNc2ccccc2O)cc1O`, the Activity is reported as “inactive”.
For `Oc1cccc(CNc2ccccc2O)c1`, the Activity was “inactive”.

Biological target: Amyloid-beta precursor protein (Homo sapiens) (UniProt P05067)
Experiment: Binding affinity to amyloid beta (1 to 40) (unknown origin) by tyrosine fluorimetric titration assay
Conditions: not given
For `Oc1ccc(CNc2ccccc2O)cc1O`, the Ka was 3.55 ×10⁵ /M.
`Oc1cccc(CNc2ccccc2O)c1` showed a Ka of 1.55 ×10⁵ /M.
